From the NIST ThermoML archive (doi:10.1016/j.jct.2007.05.017)
± gives the expanded uncertainty stated by the source.

Assay: xn = mol fraction of the nth substance listed
Details: Liquid, Vibrating tube method

COC(=O)OC [dimethyl carbonate] + O=C=O
mass density [kg/m3]
Details | x2 = 0.2765 | x2 = 0.4101 | x2 = 0.4429 | x2 = 0.5128 | x2 = 0.5573 | x2 = 0.6179 | x2 = 0.6791 | x2 = 0.6922 | x2 = 0.7885 | x2 = 0.7974
273 K | – | 475.4 ± 40 | – | 448.2 ± 40 | – | 373.6 ± 40 | – | 331.4 ± 40 | 260.1 ± 40 | –
283 K | 659.5 ± 40 | – | 569.3 ± 40 | – | 465.6 ± 40 | – | 358.1 ± 40 | – | – | 311.1 ± 40
